Assay results taken from patent US9624215B2, “Amine derivative or salt thereof” (TOYAMA CHEMICAL CO., LTD., priority 2012, dated 2017).

What follows are compounds tested on normal human neonatal foreskin epidermal keratinocytes (NHEK-F) (assay: Cell proliferation inhibition test). Settings: Keratinocyte, 72 h, NHEK-F cells, three days incubation, ATPlite or CellTiterGlo, read-out: IC50 (concentration of the compound at which the cell count is reduced by 50%).
Type: cell-based
Protocol: 2×10^3 normal human neonatal foreskin epidermal keratinocytes (NHEK-F) (Kurabo, KK-4009) were suspended in 100 μL of Humedia-EG2 (Kurabo, KK-2150S) medium, plated in a 96-well plate and incubated overnight. The test compound was added on the following day and the cells were incubated for further three days. The cell count was determined using ATPlite (PerkinElmer, 6016739) or CellTiterGlo (Promega, G7573).
The inhibition rate was calculated from the following formula to determine the concentration of the compound at which the cell count is reduced by 50% (IC50). Inhibition rate (%)=100−(cell count in the presence of test compound/cell count in the absence of test compound)×100

Compound	IC50 [nM]
CC(C)Cn1ccc2ccc(Nc3ncc(C4CC4)cc3C(=O)O)cc21 [Example 521, 5-cyclopropyl-2-((1-isobutyl-1H-indol-6-yl)amino)nicotinic acid]	≤ 10
COC/C=C/c1cccc(Cn2ccc3cc(Nc4ncc(C5CC5)cc4C(=O)O)ccc32)c1 [Example 508, (E)-5-cyclopropyl-2-((1-(3-(3-methoxyprop-1-en-1-yl)benzyl)-1H-indol-5-yl)amino)nicotinic acid]	≤ 10
Cn1cc(C2CCCCC2)c2cc(Nc3ncc(C4CC4)cc3C(=O)O)ccc21 [Example 612, 2-((3-cyclohexyl-1-methyl-1H-indol-5-yl)amino)-5-cyclopropylnicotinic acid]	10 to 100
CC(C)n1ccc2cc(Nc3ncc(C4CC4)cc3C(=O)O)ccc21 [Example 123, 5-cyclopropyl-2-((1-isopropyl-1H-indol-5-yl)amino)nicotinic acid]	10 to 100
O=C(O)c1cc(C2CC2)cnc1Nc1ccc2c(ccn2CC2CC2)c1 [Example 146, 5-cyclopropyl-2-((1-(cyclopropylmethyl)-1H-indol-5-yl)amino)nicotinic acid]	10 to 100
O=C(O)c1cc(Cl)ncc1Nc1ccc2c(ccn2Cc2ccccc2)c1 [Example 229, 5-((1-benzyl-1H-indol-5-yl)amino)-2-chloroisonicotinic acid]	10 to 100
O=C(O)c1cc(C2CC2)cnc1Nc1cccc2c1ccn2CC1CCCC1 [Example 537, 2-((1-(Cyclopentylmethyl)-1H-indol-4-yl)amino)-5-cyclopropylnicotinic acid]	≤ 10
O=C(O)c1cc(C2CC2)cnc1Nc1ccc2c(ccn2Cc2c(F)cccc2F)c1 [Example 634, 5-cyclopropyl-2-((1-(2,6-difluorobenzyl)-1H-indol-5-yl)amino)nicotinic acid]	≤ 10
CCCn1ccc2cc(Nc3ncc(C4CC4)cc3C(=O)O)ccc21 [Example 636, 5-cyclopropyl-2-((1-propyl-1H-indol-5-yl)amino)nicotinic acid]	10 to 100
Cc1ccccc1-c1cn(C)c2ccc(Nc3ncc(C4CC4)cc3C(=O)O)cc12 [Example 567, 5-cyclopropyl-2-((1-methyl-3-(2-methylphenyl)-1H-indol-5-yl)amino)nicotinic acid]	10 to 100
Cc1c(Nc2ncc(C3CC3)cc2C(=O)O)ccc2c1ccn2Cc1ccccc1 [Example 573]	≤ 10
Cc1cc2cc(Nc3ncc(C4CC4)cc3C(=O)O)ccc2n1CC(C)C [Example 550, 5-cyclopropyl-2-((1-isobutyl-2-methyl-1H-indol-5-yl)amino)nicotinic acid]	10 to 100
COC/C=C/c1cc(Nc2ncc(C3CC3)cc2C(=O)O)cc2ccn(C)c12 [Example 467, (E)-5-cyclopropyl-2-((7-(3-methoxyprop-1-en-1-yl)-1-methyl-1H-indol-5-yl)amino)nicotinic acid]	10 to 100
Cn1cc(C2CC2)c2cc(Nc3ncc(C4CC4)cc3C(=O)O)ccc21 [Example 393, 5-cyclopropyl-2-((3-cyclopropyl-1-methyl-1H-indol-5-yl)amino)nicotinic acid]	10 to 100
Cc1cc(C)cc(Cn2ccc3cc(Nc4ncc(C5CC5)cc4C(=O)O)ccc32)c1 [Example 498, 5-cyclopropyl-2-((1-(3,5-dimethylbenzyl)-1H-indol-5-yl)amino)nicotinic acid]	≤ 10
Cn1ccc2cc(Nc3ncc(C4CC4)cc3C(=O)O)cc(C3CC3)c21 [Example 409, 5-cyclopropyl-2-((7-cyclopropyl-1-methyl-1H-indol-5-yl)amino)nicotinic acid]	10 to 100
COc1ccc(Cn2ccc3cc(Nc4ccc(Cl)cc4C(=O)O)ccc32)cc1 [Example 347, 5-chloro-2-((1-(4-methoxybenzyl)-1H-indol-5-yl)amino)benzoic acid]	10 to 100
O=C(O)c1cc(C2CC2)cnc1Nc1cccc2c1ccc(=O)n2-c1ccccc1 [Example 401, 5-cyclopropyl-2-((2-oxo-1-phenyl-1,2-dihydroquinolin-5-yl)amino)nicotinic acid]	100 to 1000
O=C(O)c1cc(C2CC2)cnc1Nc1cc(-c2ccccc2)c2[nH]ccc2c1 [Example 227, 5-cyclopropyl-2-((7-phenyl-1H-indol-5-yl)amino)nicotinic acid]	10 to 100
Cn1ccc2cc(Nc3ncc(C4CC4)cc3C(=O)O)cc(-c3cccc(C#N)c3)c21 [Example 483, 2-((7-(3-cyanophenyl)-1-methyl-1H-indol-5-yl)amino)-5-cyclopropylnicotinic acid]	≤ 10
O=C(O)c1cc(C2CC2)cnc1Nc1ccc2c(-c3ccccc3)nccc2c1 [Example 527, 5-cyclopropyl-2-((1-phenylisoquinolin-6-yl)amino)nicotinic acid]	≤ 10

Compound	IC50 [nM]
O=C(O)c1cc(Cl)ccc1Nc1ccc2c(ccn2-c2cnccn2)c1 [Example 313, 5-chloro-2-((1-(pyrazin-2-yl)-1H-indol-5-yl)amino)benzoic acid]	100 to 1000
Cn1ccc2cc(Nc3ncc(C4CC4)cc3C(=O)O)cc(-c3cc(F)cc(F)c3)c21 [Example 586, 5-cyclopropyl-2-((7-(3,5-difluorophenyl)-1-methyl-1H-indol-5-yl)amino)nicotinic acid]	≤ 10
O=C(O)c1cc(C2CC2)cnc1Nc1ccc2c(ccn2Cc2ccc(Cl)cc2)c1 [Example 461, 2-((1-(4-Chlorobenzyl)-1H-indol-5-yl)amino)-5-cyclopropylnicotinic acid]	≤ 10
N#Cc1ccc(Cn2ccc3cc(Nc4ncc(C5CC5)cc4C(=O)O)ccc32)cc1 [Example 454, 2-((1-(4-cyanobenzyl)-1H-indol-5-yl)amino)-5-cyclopropylnicotinic acid]	10 to 100
Cn1cc(-c2ccccc2)c2ccc(Nc3ncc(C4CC4)cc3C(=O)O)cc21 [Example 41, 5-cyclopropyl-2-((1-methyl-3-phenyl-1H-indol-6-yl)amino)nicotinic acid]	10 to 100
CCCCCn1ccc2cc(Nc3ncc(C4CC4)cc3C(=O)O)cc(CCCOC)c21 [Example 610, 5-cyclopropyl-2-((7-(3-methoxypropyl)-1-pentyl-1H-indol-5-yl)amino)nicotinic acid]	≤ 10
CCOCCCc1cc(Nc2ncc(C3CC3)cc2C(=O)O)cc2ccn(C)c12 [Example 603, 5-cyclopropyl-2-((7-(3-ethoxypropyl)-1-methyl-1H-indol-5-yl)amino)nicotinic acid]	10 to 100
Cn1ccc2cc(Nc3ncc(C4CC4)cc3C(=O)O)cc(-c3ccccn3)c21 [Example 500, 5-cyclopropyl-2-((1-methyl-7-(pyridin-2-yl)-1H-indol-5-yl)amino)nicotinic acid]	10 to 100
CCc1cnc(Nc2ccc3c(ccn3Cc3ccccc3)c2)c(C(=O)O)c1 [Example 381, 2-((1-benzyl-1H-indol-5-yl)amino)-5-ethylnicotinic acid]	10 to 100
O=C(O)c1cc(C2CC2)cnc1Nc1cccc2c(N3CCCCC3)nccc12 [Example 473, 5-cyclopropyl-2-(1-(piperidin-1-yl)isoquinolin-5-ylamino)nicotinic acid]	10 to 100
CC(C)c1ccc(Nc2ccc3c(ccn3Cc3ccccc3)c2)c(C(=O)O)c1 [Example 114, 2-((1-benzyl-1H-indol-5-yl)amino)-5-isopropylbenzoic acid]	≤ 10
Cn1ccc2cc(Nc3ncc(C4CC4)cc3C(=O)O)cc(-c3ccncc3F)c21 [Example 589, 5-cyclopropyl-2-((7-(3-fluoropyridin-4-yl)-1-methyl-1H-indol-5-yl)amino)nicotinic acid]	10 to 100
O=C(O)c1cc(C2CC2)cnc1Nc1ccc2c(ccn2CCCC(F)(F)F)c1 [Example 616, 5-cyclopropyl-2-((1-(4,4,4-trifluorobutyl)-1H-indol-5-yl)amino)nicotinic acid]	10 to 100
O=C(O)c1cc(Cl)ccc1Nc1ccc2c(c1)cc(CO)n2Cc1ccccc1 [Example 25, 2-((1-benzyl-2-(hydroxymethyl)-1H-indol-5-yl)amino)-5-chlorobenzoic acid]	10 to 100
O=C(O)c1cc(C2CC2)cnc1Nc1c(F)cc2c(ccn2Cc2ccccc2)c1F [Example 554, 2-((1-benzyl-4,6-difluoro-1H-indol-5-yl)amino)-5-cyclopropylnicotinic acid]	≤ 10
O=C(O)c1cc(Br)cnc1Nc1ccc2c(ccn2Cc2cccc(F)c2)c1 [Example 627, 5-bromo-2-((1-(3-fluorobenzyl)-1H-indol-5-yl)amino)nicotinic acid]	10 to 100
O=C(O)c1cc(Cl)ccc1Nc1ccc2c(ccn2Cc2cccc(OCc3ccc4ccccc4n3)c2)c1 [Example 249, 5-chloro-2-((1-(3-(quinolin-2-ylmethoxy)benzyl)-1H-indol-5-yl)amino)benzoic acid]	≤ 10
O=C(O)c1cc(C2CC2)cnc1Nc1cccc2c(-c3ccccc3)nccc12 [Example 185, 5-cyclopropyl-2-((1-phenylisoquinolin-5-yl)amino)nicotinic acid]	≤ 10
COc1ccc(-c2cn(C)c3ccc(Nc4ncc(C5CC5)cc4C(=O)O)cc23)cc1 [Example 579, 5-cyclopropyl-2-((3-(4-methoxyphenyl)-1-methyl-1H-indol-5-yl)amino)nicotinic acid]	100 to 1000
O=C(O)c1cc(C2CC2)cnc1Nc1cc2ccn(Cc3ccccc3)c2cc1F [Example 552, 2-((1-benzyl-6-fluoro-1H-indol-5-yl)amino)-5-cyclopropylnicotinic acid]	≤ 10
O=C(O)c1cc(C2CC2)cnc1Nc1ccc2c(c1)CCCN2Cc1ccccc1 [Example 183, 2-((1-benzyl-1,2,3,4-tetrahydroquinolin-6-yl)amino)-5-cyclopropylnicotinic acid]	10 to 100
